Assays:
[1] = target: TrkA (histidine-tagged recombinant human TrkA, cytoplasmic domain) (Homo sapiens (Human), UniProt P04629); test: TrkA ELISA assay; type: biochemical; conditions: Table 1, 500 μM ATP, read-out: TrkA Enzyme IC50
Description: An enzyme-linked immunosorbant assay (ELISA) was used to assess TrkA kinase activity in the presence of inhibitors. Immulon 4HBX 384-well microtiter plates (Thermo part #8755) were coated with a 0.025 mg/mL solution of poly (Glu, Ala, Tyr; 6:3:1; Sigma P3899). […] The assay buffer consisted of 25 mM MOPS pH 7.5, 0.005% (v/v) Triton X-100 and 5 mM MgCl2. The reaction mixture was removed from the plate by washing with PBS containing 0.1% (v/v) Tween 20. The phosphorylated reaction product was detected using 0.2 μg/mL of a phosphotyrosine specific monoclonal antibody (clone PY20) conjugated to horseradish peroxidase in conjunction with the TMB Peroxidase Substrate System (KPL). After the addition of 1M phosphoric acid, the chromogenic substrate color intensity was quantitated via absorbance at 450 nm.

Human Jak2 kinase domain = Human Jak2 kinase domain (Homo sapiens (Human), UniProt O60674); test: Jak2 inhibition assay (Omnia kinase assay); type: biochemical; conditions: Table 1; >1000 nM when >50% inhibition not observed at 1000 nM; read-out: Jak2 Enzyme IC50
Chain of Human Jak2 kinase domain (O60674 808-1132): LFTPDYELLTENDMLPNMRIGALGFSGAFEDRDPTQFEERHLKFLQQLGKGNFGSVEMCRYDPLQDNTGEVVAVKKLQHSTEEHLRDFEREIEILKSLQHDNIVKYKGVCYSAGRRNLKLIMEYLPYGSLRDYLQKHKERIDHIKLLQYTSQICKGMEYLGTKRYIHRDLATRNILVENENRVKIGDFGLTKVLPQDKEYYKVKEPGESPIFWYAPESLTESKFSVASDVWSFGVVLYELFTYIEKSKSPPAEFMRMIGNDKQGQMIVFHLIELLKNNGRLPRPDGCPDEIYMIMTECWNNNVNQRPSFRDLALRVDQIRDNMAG
From the text: The assays described in Examples C, D, E and F for the determination of JAK1, JAK2, JAK3 and Tyk2 kinase activity, respectively, utilized the Omnia® Kinase fluorescence peptide substrate-based technology (Invitrogen). The specific components of the assay mixture are described in Examples C, D and E. […] Two-μL aliquots of these were transferred to a fresh plate for a ten-fold intermediate dilution with assay buffer. […] Human Jak2 kinase domain comprising amino acids 808-1132 was purchased from Invitrogen Corporation, Carlsbad, Calif.

Chain of TrkA (histidine-tagged recombinant human TrkA, cytoplasmic domain) (P04629 440-796): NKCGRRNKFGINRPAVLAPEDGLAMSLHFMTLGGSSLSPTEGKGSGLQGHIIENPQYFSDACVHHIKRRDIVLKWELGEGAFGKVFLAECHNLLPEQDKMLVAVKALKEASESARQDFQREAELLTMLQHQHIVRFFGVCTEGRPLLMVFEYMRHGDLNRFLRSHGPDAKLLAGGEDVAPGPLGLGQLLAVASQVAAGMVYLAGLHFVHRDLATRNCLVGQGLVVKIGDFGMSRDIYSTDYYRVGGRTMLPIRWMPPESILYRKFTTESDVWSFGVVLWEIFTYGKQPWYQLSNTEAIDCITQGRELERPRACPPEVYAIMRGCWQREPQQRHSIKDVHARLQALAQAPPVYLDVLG

SMILES: C[C@H](O)[C@H](CO)NC(=O)c1cnn2ccc(N3CCC[C@@H]3c3cc(F)ccc3F)nc12 [Example 175, 5-((R)-2-(2,5-difluorophenyl)pyrrolidin-1-yl)-N-((2S,3S)-1,3-dihydroxybutan-2-yl)pyrazolo[1,5-a]pyrimidine-3-carboxamide]
- IC50 [1]: 12.2 nM
- IC50 (Human Jak2 kinase domain): > 1000 nM

SMILES: C[C@H](O)[C@@H](CO)NC(=O)c1cnn2ccc(N3CCC[C@@H]3c3cc(F)ccc3F)nc12 [Example 176, 5-((R)-2-(2,5-difluorophenyl)pyrrolidin-1-yl)-N-((2R,3S)-1,3-dihydroxybutan-2-yl)pyrazolo[1,5-a]pyrimidine-3-carboxamide]
- IC50 [1]: 27.2 nM
- IC50 (Human Jak2 kinase domain): > 1000 nM

SMILES: O=C(NCCN1CCC(O)CC1)c1cnn2ccc(N3CCC[C@@H]3c3cc(F)ccc3F)nc12 [Example 170, 5-((R)-2-(2,5-difluorophenyl)pyrrolidin-1-yl)-N-(2-(4-hydroxypiperidin-1-yl)ethyl)pyrazolo[1,5-a]pyrimidine-3-carboxamide]
- IC50 [1]: 11.6 nM

SMILES: C[C@@H](O)[C@H](CO)NC(=O)c1cnn2ccc(N3CCC[C@@H]3c3cc(F)ccc3F)nc12 [Example 174, 5-((R)-2-(2,5-difluorophenyl)pyrrolidin-1-yl)-N-((2S,3R)-1,3-dihydroxybutan-2-yl)pyrazolo[1,5-a]pyrimidine-3-carboxamide]
- IC50 [1]: 16.3 nM
- IC50 (Human Jak2 kinase domain): > 1000 nM

Source: patent US9796724B2, “Substituted pyrazolo[1,5-a]pyrimidine compounds as Trk kinase inhibitors” (Array BioPharma, Inc., priority 2009, dated 2017)
